The subject of data set [1] is whole proteome in Jurkat T cells. Nature of the data set: Chemoproteomic maleimide-biotin competition. In kind it is cell-based, human. As for the experimental part:
To further define the selectivity of M029 for SHP1 and assess its cellular target engagement, a chemoproteomic investigation was performed to identify Cys residues protected by M029 from biotin‐tagged maleimide from the whole proteome in Jurkat T cells.^[ [79] ^] Since proteins labeled by M029 will be prevented from capture by the maleimide‐biotin probe, M029‐modified proteins can be readily identified by determining the ratio between the maleimide‐biotin‐bound proteins in the absence and presence of M029. […] The modest observed off‐target reactivity of M029 is not uncommon for targeted covalent inhibitors, including those FDA‐approved covalent drugs targeting EGFR (Osimertinib),^[ [80], [81] ^] BTK (Ibrutinib),^[ [82] ^] and KRAS (Sotorasib),^[ [83] ^] which also modify other proteins in addition to the intended targets. […]
For chemical proteomics studies, Cells were placed in 1 mL urea lysis buffer (100 mM Tris-HCl, pH 8, 8 M urea) and sonicated on ice for three 1-min rounds at 15% amplitude. […] Total protein concentrations were determined using the bicinchoninic acid (BCA) protein assay kit (Thermo Scientific Pierce, Rockford, IL). […]
Mal-biotin labeled peptides were diluted in 1 mL of PBS with 50 μL of High-Capacity NeutrAvidin slurry (Thermo Scientific). […] The peptide samples were analyzed by using an Evosep One LC coupled to a timsTOF HT mass spectrometer (Bruker). […]

The nature of another data set: Pharmacokinetics in mice. It counts as in vivo, C57BL/6 mice. Also on record: AUC: unit not given here. As for the experimental part: Given M029's superb potency, selectivity, and target engagement, we considered that these desirable attributes make it a powerful chemical probe for interrogating the roles of SHP1 in biological processes and a promising lead for further development into an SHP1‐targeted therapy. […] To that end, we determined the pharmacokinetic (PK) properties of M029 in mice by administrating the compound via intraperitoneal (IP), intravenous (IV), and oral (PO) routes at a concentration of 25 mg/kg (Figure S4). […] Importantly, M029 is orally bioavailable. […] Moreover, even with the 25 mg/kg oral gavage, the plasma concentration of M029 was maintained several‐fold higher than its biochemical IC50 and two‐fold above its cellular EC50 for Jurkat T cell activation for at least 1 h duration (Figure S4). These PK properties ensure that adequate M029 compound exposure can be achieved to assess the effect of SHP1 inhibition in vivo.
Figure S4. Pharmacokinetic parameters of M029. Curves of (A) PO, (B) IP, (C) IV dosage of M029 at 25 mg/kg in WT C57BL/6 mice. Results were analyzed using GraphPad Prism 10.4.2. The figure is plotted as average ± standard error of the mean (SEM).
All the in vivo studies were performed under an animal protocol (1511001324) approved by the Institutional Animal Care & Use Committee of Purdue University, in accordance with the recommendations in the Guide for the Care and Use of Laboratory Animals of the National Institutes of Health. For PK study, C57BL6 female mice (25-30g body weight) were injected intraperitoneally, orally, or intravenously with 25 mg/kg M029 dissolved in 0.4 ml saline. Blood samples were collected through the tail vein at the indicated time points after injection. Isoflurane was used as an anesthetic. All blood samples were centrifuged at 1,500 g for 5 minutes, and plasma was separated and stored at –80°C until analysis by a validated method based on reversed-phase liquid chromatography coupled to mass-spectrometric detection (LC/MS) using a previously published procedure.^169 For the MC38 syngeneic tumor study, 12-week-old C57BL6 female mice were injected subcutaneously with […] MC38 cells in the right and left flanks for tumor growth. When tumors reached an average volume of 100 mm^3 mice were tumor size-matched and randomly assigned to different experimental groups for experiments. Four mice with eight tumors were used in each treatment group. Mice were injected orally with saline or 25 or 100 mg/kg M029 daily. Tumor sizes and animal weights were measured twice per week. Tumor volume (mm^3) = (length X width^2)/2. At the end of the experiments, mice were euthanized, and tumors were collected for analysis. Among eight tumors collected from each group, four homogenous samples and […] were prepared for Western blots and histology analysis.

Results on one molecule are retold here after article PMC12833730, “Discovery of a First‐in‐Class Covalent Allosteric SHP1 Inhibitor with Immunotherapeutic Activity” (Angewandte Chemie (International Ed. in English), 2025).

The term bioavailability denotes dose-corrected exposure relative to a reference, in per cent.

Read-outs that look alike come from different tables or passages of the source.

As for `N#Cc1ccsc1NS(=O)(=O)c1ccc(NC(=O)CCl)cc1` [M029, 2-Chloro-N-(4-(N-(3-cyanothiophen-2-yl)sulfamoyl)phenyl)acetamide], the “rank of SHP1 (Cys480) among M029-labeled proteins” value in data set [1] (>2700 peptide fragments identified) is on record as “second most”. Besides, the “number of proteins significantly blocked from maleimide modification” value in data set [1] (cutoff 10-fold, p 0.05) is “five”. For the same molecule, in “Pharmacokinetics in mice” (25 mg/kg oral gavage), the “duration plasma concentration above biochemical IC50 and two-fold above cellular EC50” value is recorded as “at least 1 h”. Also, the AUC in the data set “Pharmacokinetics in mice” (female, C57BL/6, mouse, plasma, 25 mg/kg oral, read-out: AUC, oral) was 1410; in “Pharmacokinetics in mice” (female, C57BL/6, mouse, plasma, ip, 25 mg/kg intraperitoneal, read-out: area under the curve (AUC), IP) it was 5090. The Cmax in “Pharmacokinetics in mice” (female, C57BL/6, mouse, plasma, 25 mg/kg oral, read-out: Cmax, oral) is 29.8 ± 7.1 µM; in the data set “Pharmacokinetics in mice” (female, C57BL/6, mouse, plasma, ip, 25 mg/kg intraperitoneal, read-out: peak plasma concentration (Cmax), IP) it was 122 ± 28.2 µM. The half-life in “Pharmacokinetics in mice” (female, C57BL/6, mouse, plasma, 25 mg/kg oral, read-out: t1/2, oral) worked out at 38.5 ± 7.6 min; in the data set “Pharmacokinetics in mice” (female, C57BL/6, mouse, plasma, ip, 25 mg/kg intraperitoneal, read-out: half-life (t1/2), IP) it was 36.3 ± 5.7 min. Moreover, in the data set “Pharmacokinetics in mice” (female, C57BL/6, mouse, plasma, po, 25 mg/kg, read-out: oral bioavailability (%F)), the bioavailability was 18%.
